Assay results as given in patent US6613718B2, “Aryl ether derivatives and processes for their preparation and herbicidal and desiccant compositions containing them” (Ishihara Sangyo Kaisha, Ltd., priority 2001, dated 2003).

How the values were obtained:
Assay type in all cases: in vivo
Settings in all cases: 14 days after application
[1] = tested on: soybean (Glycine max L., var. Pella 86, SOY); assay: Post-emerge greenhouse screening, crop safety (phytotoxicity rating)
Method in brief: (§1)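 Ratings taken 14 days after treatment on a 0–100 scale, 100 meaning complete plant death. Post-emerge: 2-3 leaf plants, 0.25% v/v surfactant added; pre-emerge: seeds sown a day ahead, soil surface-watered after spraying. Rates 15–1000 g ai/ha in acetone, 187 l/ha.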

[2] = tested on: upland rice (Oryza sp., var.Tebonnet, RICE); assay: as above
Method in brief: as §1

[3] = tested on: johnsongrass (Sorghum halepense, SORHA); assay: Post-emerge greenhouse herbicide activity screening, phytotoxicity rating
Method in brief: as §1

[4] = tested on: green foxtail (Setaria viridis, SETVI); assay: as above
Method in brief: as §1

[5] = tested on: sicklepod (Cassia obtusifolia, CASOB); assay: as above
Method in brief: as §1

[6] = tested on: redroot pigweed (Amaranthus retroflexus, AMARE); assay: as above
Method in brief: as §1

[7] = tested on: velvetleaf (Abutilon theophrasti, ABUTH); assay: as above
Method in brief: as §1

[8] = tested on: common ragweed (Ambrosia artemisiifolia L., AMBEL); assay: as above
Method in brief: as §1

[9] = tested on: large crabgrass (Digitaria sanguinalis, DIGSA); assay: as above
Method in brief: as §1

[10] = tested on: barnyardgrass (Echinochloa crus-galli, ECHCG); assay: as above
Method in brief: as §1

[11] = tested on: ivyleaf morningglory (Ipomoea hederacea, IPOHE); assay: as above
Method in brief: as §1

[12] = tested on: lambsquarters (Chenopodium album, CHEAL); assay: as above
Method in brief: as §1

[13] = tested on: soybean (Glycine max L., var. Pella 86, SOY); assay: Pre-emerge greenhouse screening, crop safety (phytotoxicity rating)
Method in brief: as §1

[14] = tested on: upland rice (Oryza sp., var.Tebonnet, RICE); assay: as above
Method in brief: as §1

[15] = tested on: field corn (Zea mays L., var. Dekalb 535, CORN); assay: as above
Method in brief: as §1

[16] = tested on: field corn (Zea mays L., var. Dekalb 535, CORN); assay: Post-emerge greenhouse screening, crop safety / corn selectivity (phytotoxicity rating)
Method in brief: as §1

[17] = tested on: johnsongrass (Sorghum halepense, SORHA); assay: Pre-emerge greenhouse herbicide activity screening, phytotoxicity rating
Method in brief: as §1

[18] = tested on: green foxtail (Setaria viridis, SETVI); assay: as above
Method in brief: as §1

[19] = tested on: sicklepod (Cassia obtusifolia, CASOB); assay: as above
Method in brief: as §1

[20] = tested on: redroot pigweed (Amaranthus retroflexus, AMARE); assay: as above
Method in brief: as §1

[21] = tested on: velvetleaf (Abutilon theophrasti, ABUTH); assay: as above
Method in brief: as §1

[22] = tested on: common ragweed (Ambrosia artemisiifolia L., AMBEL); assay: as above
Method in brief: as §1

[23] = tested on: large crabgrass (Digitaria sanguinalis, DIGSA); assay: as above
Method in brief: as §1

[24] = tested on: barnyardgrass (Echinochloa crus-galli, ECHCG); assay: as above
Method in brief: as §1

[25] = tested on: ivyleaf morningglory (Ipomoea hederacea, IPOHE); assay: as above
Method in brief: as §1

[26] = tested on: lambsquarters (Chenopodium album, CHEAL); assay: as above
Method in brief: as §1

For `Cn1c(C(F)(F)F)cc(=O)n(-c2cc(Oc3ccccc3C#N)c(Cl)cc2F)c1=S` [Compound 1-66], which “SOY crop damage, phytotoxicity rating (0-100 scale)” value (shortened to “SOY crop damage”) ([1]; 125 g ai/ha) is on record?
Its value is 10.

What about the “SOY crop damage” value ([1]; 250 g ai/ha) of the same compound?
The value was 10.

And the “RICE crop damage, phytotoxicity rating (0-100 scale)” value (“RICE crop damage” below) ([2]; 125 g ai/ha)?
The value was 0.

And the “RICE crop damage” value ([2]; 250 g ai/ha)?
The value was 0.

And the “SORHA phytotoxicity rating (0-100 scale)” value ([3]; 125 g ai/ha)?
The value was 0.

What about the “SORHA phytotoxicity rating (0-100 scale)” value ([3]; 250 g ai/ha) of the same compound?
The value was 0.

And the “SETVI phytotoxicity rating (0-100 scale)” value ([4]; 125 g ai/ha)?
Its value is 0.

And the “SETVI phytotoxicity rating (0-100 scale)” value ([4]; 250 g ai/ha)?
Its value is 0.

What about the “CASOB phytotoxicity rating (0-100 scale)” value ([5]; 125 g ai/ha) of the same compound?
Its value is 75.

And the “CASOB phytotoxicity rating (0-100 scale)” value ([5]; 250 g ai/ha)?
Its value is 75.

And the “AMARE phytotoxicity rating (0-100 scale)” value ([6]; 125 g ai/ha)?
The value was 70.

And the “AMARE phytotoxicity rating (0-100 scale)” value ([6]; 250 g ai/ha)?
The value was 70.

What about the “ABUTH phytotoxicity rating (0-100 scale)” value ([7]; 125 g ai/ha) of the same compound?
Its value is 90.

And the “ABUTH phytotoxicity rating (0-100 scale)” value ([7]; 250 g ai/ha)?
Its value is 90.

And the “AMBEL phytotoxicity rating (0-100 scale)” value ([8]; 125 g ai/ha)?
Its value is 75.

What about the “AMBEL phytotoxicity rating (0-100 scale)” value ([8]; 250 g ai/ha) of the same compound?
Its value is 75.

What about the “DIGSA phytotoxicity rating (0-100 scale)” value ([9]; 125 g ai/ha) of the same compound?
The value was 0.

What about the “DIGSA phytotoxicity rating (0-100 scale)” value ([9]; 250 g ai/ha) of the same compound?
The value was 0.

What about the “ECHCG phytotoxicity rating (0-100 scale)” value ([10]; 125 g ai/ha) of the same compound?
The value was 0.

And the “ECHCG phytotoxicity rating (0-100 scale)” value ([10]; 250 g ai/ha)?
Its value is 0.

What about the “IPOHE phytotoxicity rating (0-100 scale)” value ([11]; 125 g ai/ha) of the same compound?
Its value is 70.

And the “IPOHE phytotoxicity rating (0-100 scale)” value ([11]; 250 g ai/ha)?
Its value is 85.

What about the “CHEAL phytotoxicity rating (0-100 scale)” value ([12]; 125 g ai/ha) of the same compound?
The value was 98.

And the “CHEAL phytotoxicity rating (0-100 scale)” value ([12]; 250 g ai/ha)?
Its value is 100.

What about the “SOY crop damage” value ([13]; 125 g ai/ha) of the same compound?
Its value is 0.

What about the “SOY crop damage” value ([13]; 250 g ai/ha) of the same compound?
The value was 0.

What about the “RICE crop damage” value ([14]; 125 g ai/ha) of the same compound?
The value was 40.

And the “RICE crop damage” value ([14]; 250 g ai/ha)?
Its value is 45.

And the “CORN crop damage, phytotoxicity rating (0-100 scale)” value (shortened to “CORN crop damage”) ([15]; 125 g ai/ha)?
The value was 0.

And the “CORN crop damage” value ([15]; 250 g ai/ha)?
The value was 0.

And the “CORN crop damage” value ([16]; 125 g ai/ha)?
The value was 0.

And the “CORN crop damage” value ([16]; 250 g ai/ha)?
The value was 0.

What about the “SORHA phytotoxicity rating (0-100 scale)” value ([17]; 125 g ai/ha) of the same compound?
Its value is 60.

What about the “SORHA phytotoxicity rating (0-100 scale)” value ([17]; 250 g ai/ha) of the same compound?
Its value is 75.

And the “SETVI phytotoxicity rating (0-100 scale)” value ([18]; 125 g ai/ha)?
The value was 99.

And the “SETVI phytotoxicity rating (0-100 scale)” value ([18]; 250 g ai/ha)?
Its value is 100.

What about the “CASOB phytotoxicity rating (0-100 scale)” value ([19]; 125 g ai/ha) of the same compound?
Its value is 35.

What about the “CASOB phytotoxicity rating (0-100 scale)” value ([19]; 250 g ai/ha) of the same compound?
The value was 65.

And the “AMARE phytotoxicity rating (0-100 scale)” value ([20]; 125 g ai/ha)?
The value was 100.

What about the “AMARE phytotoxicity rating (0-100 scale)” value ([20]; 250 g ai/ha) of the same compound?
Its value is 100.

And the “ABUTH phytotoxicity rating (0-100 scale)” value ([21]; 125 g ai/ha)?
Its value is 85.

And the “ABUTH phytotoxicity rating (0-100 scale)” value ([21]; 250 g ai/ha)?
Its value is 99.

And the “AMBEL phytotoxicity rating (0-100 scale)” value ([22]; 125 g ai/ha)?
The value was 60.

And the “AMBEL phytotoxicity rating (0-100 scale)” value ([22]; 250 g ai/ha)?
The value was 65.

What about the “DIGSA phytotoxicity rating (0-100 scale)” value ([23]; 125 g ai/ha) of the same compound?
Its value is 90.

What about the “DIGSA phytotoxicity rating (0-100 scale)” value ([23]; 250 g ai/ha) of the same compound?
Its value is 99.

What about the “ECHCG phytotoxicity rating (0-100 scale)” value ([24]; 125 g ai/ha) of the same compound?
The value was 55.

And the “ECHCG phytotoxicity rating (0-100 scale)” value ([24]; 250 g ai/ha)?
Its value is 60.

What about the “IPOHE phytotoxicity rating (0-100 scale)” value ([25]; 125 g ai/ha) of the same compound?
Its value is 90.

What about the “IPOHE phytotoxicity rating (0-100 scale)” value ([25]; 250 g ai/ha) of the same compound?
The value was 100.

And the “CHEAL phytotoxicity rating (0-100 scale)” value ([26]; 125 g ai/ha)?
Its value is 100.

And the “CHEAL phytotoxicity rating (0-100 scale)” value ([26]; 250 g ai/ha)?
The value was 100.
